Assay results taken from patent US20150038435A1, “N-TERMINALLY MODIFIED OLIGOPEPTIDES AND USES THEREOF” (Novo Nordisk A/S, priority 2012, published 2015).
*: point of attachment. Lauroyl = CCCCCCCCCCCC(=O)*

Columns and labels:
Chymotrypsin = assay: Inhibition of enzymatic degradation of a model GLP-1 (FRET substrate) by chymotrypsin; type: biochemical; conditions: compound 0.1 mM, buffer containing 8% DMSO
Summary of the method: (§1)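 MCA/DNP-labelled model GLP-1 FRET substrate (10 μl of 100 μM stock) in Dulbecco's PBS at 37° C with varying acylated peptide; fluorescence (ex 320/em 405 nm) read every minute for ≥30 min. Initial slopes from linear regression, duplicates averaged; EC50 by sigmoidal logistic fit of slope vs concentration.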

Trypsin = assay: Inhibition of enzymatic degradation of a model GLP-1 (FRET substrate) by trypsin; type: biochemical; conditions: compound 0.1 mM, buffer containing 8% DMSO
Summary of the method: as §1

[1] = Hydrophobicity: retention time during reverse phase HPLC; type: physicochemical; conditions: Acquity CSH C18; pH 7.2 buffer/CH3CN gradient; 40° C.
Source text: The retention time (RT) during reverse phase HPLC was taken as a measure of hydrophobicity of an N-terminally modified peptide or oligopeptide of the invention, where the connection is: The longer the RT, the more hydrophobic N-terminally modified peptide or oligopeptide. The following running conditions were applied during HPLC analysis:
Buffer B: 70% (v/v) aq. CH3CN

Substance | Slope of the initial increase in fluorescence obtained during incubation with 0.001 mg/ml Chymotrypsin (Chymotrypsin) | Slope of the initial increase in fluorescence obtained during incubation with 0.001 mg/ml Trypsin (Trypsin) | RT (retention time during reverse phase HPLC as a measure of hydrophobicity) [1]
N-dodecanoyl-Ala-Trp-Pro-Tyr-OH (Lauroyl-AWPY-OH; SMILES CCCCCCCCCCCC(=O)N[C@@H](C)C(=O)N[C@@H](Cc1c[nH]c2ccccc12)C(=O)N1CCC[C@H]1C(=O)N[C@@H](Cc1ccc(O)cc1)C(=O)O) [Example 88] | 0.11 | 0.80 | 7.88 min
N-dodecanoyl-Met-Ala-Ala-Pro-Tyr-OH (Lauroyl-MAAPY-OH; SMILES CCCCCCCCCCCC(=O)N[C@@H](CCSC)C(=O)N[C@@H](C)C(=O)N[C@@H](C)C(=O)N1CCC[C@H]1C(=O)N[C@@H](Cc1ccc(O)cc1)C(=O)O) [Example 46] | 0.09 | 1.76 | 7.06 min
N-dodecanoyl-Gln-Ala-Pro-Tyr-OH (Lauroyl-QAPY-OH; SMILES CCCCCCCCCCCC(=O)N[C@@H](CCC(N)=O)C(=O)N[C@@H](C)C(=O)N1CCC[C@H]1C(=O)N[C@@H](Cc1ccc(O)cc1)C(=O)O) [Example 103] | 1.13 | 1.78 | 4.92 min
N-dodecanoyl-Ala-His-Pro-Tyr-OH (Lauroyl-AHPY-OH; SMILES CCCCCCCCCCCC(=O)N[C@@H](C)C(=O)N[C@@H](Cc1c[nH]cn1)C(=O)N1CCC[C@H]1C(=O)N[C@@H](Cc1ccc(O)cc1)C(=O)O) [Example 79] | 0.51 | 1.93 | 5.29 min
N-dodecanoyl-Ala-Ala-Arg-Tyr-OH (Lauroyl-AARY-OH; SMILES CCCCCCCCCCCC(=O)N[C@@H](C)C(=O)N[C@@H](C)C(=O)N[C@@H](CCCNC(=N)N)C(=O)N[C@@H](Cc1ccc(O)cc1)C(=O)O) [Example 58] | 0.28 | 1.98 | 4.87 min
N-dodecanoyl-Arg-Pro-Tyr-OH [Example 113] | 0.18 | 2.00 | 5.29 min
N-dodecanoyl-Asn-Ala-Ala-Pro-Tyr-OH [Example 93] | 0.14 | 1.90 | 4.84 min
N-dodecanoyl-Leu-Pro-Tyr-OH [Example 121] | 0.34 | 1.35 | 7.77 min
N-dodecanoyl-Ala-Asn-Pro-Tyr-OH (Lauroyl-ANPY-OH; SMILES CCCCCCCCCCCC(=O)N[C@@H](C)C(=O)N[C@@H](CC(N)=O)C(=O)N1CCC[C@H]1C(=O)N[C@@H](Cc1ccc(O)cc1)C(=O)O) [Example 74] | 1.66 | 2.27 | 5.27 min
N-dodecanoyl-Ala-Ala-Leu-Tyr-OH (Lauroyl-AALY-OH; SMILES CCCCCCCCCCCC(=O)N[C@@H](C)C(=O)N[C@@H](C)C(=O)N[C@@H](CC(C)C)C(=O)N[C@@H](Cc1ccc(O)cc1)C(=O)O) [Example 66] | 0.18 | 1.98 | 7.18 min
